Data on 23 compounds can be found in ChEMBL document CHEMBL1133346, “The synthesis and evaluation of 3-substituted-7-(alkylidene)cephalosporin sulfones as beta-lactamase inhibitors” (Bioorg Med Chem Lett, 2000).

Broadly, the IC50 is the point on the concentration scale where inhibition reaches its midpoint. A low value points to greater potency in that assay.

The structures appear in SMILES notation.

Test [1] has as its target Beta-lactamase TEM (Enterobacter cloacae, UniProt Q6W9J1). The test is described as follows: Inhibition of class A TEM-1 beta-lactamase derived from Enterobacter cloacae.
Test [2] deals with T1, Beta-lactamase class C (Enterobacter cloacae, UniProt Q59401). Description: Inhibition of GC1 extended spectrum class C beta-lactamase. Also noted: species or system Enterobacter cloacae GC1.
T1 sequence (Q59401 whole entry): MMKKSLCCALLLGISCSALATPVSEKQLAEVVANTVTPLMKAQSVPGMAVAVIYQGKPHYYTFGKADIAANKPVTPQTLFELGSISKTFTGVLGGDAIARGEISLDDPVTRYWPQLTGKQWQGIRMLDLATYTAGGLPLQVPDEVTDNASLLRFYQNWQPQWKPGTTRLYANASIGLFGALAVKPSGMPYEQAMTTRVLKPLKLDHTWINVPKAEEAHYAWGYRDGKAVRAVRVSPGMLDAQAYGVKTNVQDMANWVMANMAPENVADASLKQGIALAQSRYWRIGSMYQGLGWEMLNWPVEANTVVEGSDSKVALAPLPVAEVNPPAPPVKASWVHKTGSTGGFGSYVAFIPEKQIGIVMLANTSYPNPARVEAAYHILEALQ
The target in test [3] is T1, Beta-lactamase class C. Description: Inhibition of class C beta-lactamase derived from Enterobacter cloacae P99.
The target in test [4] is Beta-lactamase (Staphylococcus aureus, UniProt P00807). Description: Inhibition of class A beta-lactamase derived from Staphylococcus aureus strain PC1.
Chain of Beta-lactamase (P00807 whole entry): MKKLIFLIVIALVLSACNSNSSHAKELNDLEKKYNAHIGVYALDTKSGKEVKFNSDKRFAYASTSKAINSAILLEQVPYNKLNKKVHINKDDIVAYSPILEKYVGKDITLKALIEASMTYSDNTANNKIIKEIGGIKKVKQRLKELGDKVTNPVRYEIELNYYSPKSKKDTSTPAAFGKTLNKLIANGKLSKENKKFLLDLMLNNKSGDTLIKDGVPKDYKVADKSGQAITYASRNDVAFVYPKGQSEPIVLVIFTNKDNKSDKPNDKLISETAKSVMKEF
Test [5] addresses T1, Beta-lactamase class C. The test is described as follows: The compound was evaluated for inhibition against the GC1 extended spectrum Class C beta-lactamase.
Test [6] deals with T1, Beta-lactamase class C. Description: The compound was evaluated for inhibition against Class C beta-lactamase derived from Enterobacter cloacae P99.

Chain of Beta-lactamase TEM (Q6W9J1 whole entry): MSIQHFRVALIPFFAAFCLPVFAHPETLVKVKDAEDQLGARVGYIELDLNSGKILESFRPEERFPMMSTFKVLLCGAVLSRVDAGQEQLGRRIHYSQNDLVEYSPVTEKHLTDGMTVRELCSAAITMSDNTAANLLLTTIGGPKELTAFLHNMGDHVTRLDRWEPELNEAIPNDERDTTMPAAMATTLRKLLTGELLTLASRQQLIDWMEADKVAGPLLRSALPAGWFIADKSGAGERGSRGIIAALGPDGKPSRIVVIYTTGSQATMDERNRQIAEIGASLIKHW

Turning to `O=C(COc1ccccc1)OCC1=C(C(=O)O)N2C(=O)/C(=C/c3ccccn3)C2S(=O)(=O)C1` (stereo unspecified), the half-maximal inhibitory concentration (IC50) in test [1] was 800 nM; in test [2] it was 130 nM; in test [3], 100 nM; in test [4], 100000 nM.
`C=C1C(/C=C/C(=O)O)=C(C(=O)O)N2C(=O)/C(=C/c3ccccn3)C2S1(=O)=O` (stereo unspecified): the IC50 in test [1] was determined as 2500 nM; in test [3], 6600 nM.
Turning to `C=C/C=C/C1=C(C(=O)O)N2C(=O)/C(=C/c3ccccn3)C2S(=O)(=O)C1` (stereo unspecified), the IC50 in test [1] is 68000 nM; in test [3] it was 24000 nM; in test [4], 75000 nM.
For `COC(=O)/C(Cl)=C/C1=C(C(=O)O)N2C(=O)/C(=C/c3ccccn3)C2S(=O)(=O)C1` (stereo unspecified), the IC50 came out at 70 nM in test [1], 180 nM in test [2], 900 nM in test [3] and 1400 nM in test [4].
As for `O=C(Cc1ccc(O)c(O)c1)OCC1=C(C(=O)O)N2C(=O)/C(=C/c3ccccn3)C2S(=O)(=O)C1` (stereo unspecified), the concentration for half-maximal inhibition (IC50) was 17400 nM in test [1], 3600 nM in test [3] and 67000 nM in test [4].
As for `COCC1=C(C(=O)O)N2C(=O)/C(=C/c3ccccn3)C2S(=O)(=O)C1` (stereo unspecified), the IC50 in test [1] amounted to 700 nM; in test [2], 1200 nM; in test [3], 700 nM; in test [4], 28000 nM.
`N#CCC1=C(C(=O)O)N2C(=O)/C(=C/c3ccccn3)C2S(=O)(=O)C1` (stereo unspecified): the IC50 in test [1] came to 5600 nM; in test [3], 900 nM; in test [4], 8900 nM.
For `C=C1C(/C=C/C(=O)OC)=C(C(=O)O)N2C(=O)/C(=C/c3ccccn3)C2S1(=O)=O` (stereo unspecified), the IC50 in test [1] was determined as 2900 nM; in test [2], 60 nM; in test [3], 30 nM; in test [4] it was 6000 nM.
For `O=C(O)C1=C(/C=C/c2ccccn2)CS(=O)(=O)[C@@H]2/C(=C\c3ccccn3)C(=O)N12`, the IC50 in test [1] stood at 200 nM; in test [3] it was 180 nM; in test [4], 4300 nM.
Take `NC(=O)/C=C/C1=C(C(=O)O)N2C(=O)/C(=C/c3ccccn3)C2S(=O)(=O)C1` (stereo unspecified): the IC50 in test [1] was found to be 90 nM; in test [2] it was 10 nM; in test [3] it was 26 nM; in test [4], 100 nM.
For `O=C(O)C1=C(/C=C/[N+](=O)[O-])CS(=O)(=O)C2/C(=C\c3ccccn3)C(=O)N12` (stereo unspecified), in that order: 70 nM, 100 nM, 20 nM and 200 nM.
`N#CC1=C(C(=O)O)N2C(=O)/C(=C/c3ccccn3)C2S(=O)(=O)C1` (stereo unspecified): the IC50 is 2340 nM in test [1], 29 nM in test [3] and 280000 nM in test [4].
As for `NC(=O)/C=C/C1=C(C(=O)O)N2C(=O)/C(=C/c3cccs3)C2S(=O)(=O)C1` (stereo unspecified), the IC50 in test [1] amounted to 900 nM; in test [3] it was 290 nM; in test [4] it was 154000 nM.
With `C=C1C(/C=C/C(=O)OC(C)(C)C)=C(C(=O)O)N2C(=O)/C(=C/c3ccccn3)C2S1(=O)=O` (stereo unspecified), the IC50 in test [2] was 150000 nM; in test [3] it was 440000 nM.
For `N#C/C=C/C1=C(C(=O)O)N2C(=O)/C(=C/c3ccccn3)C2S(=O)(=O)C1` (stereo unspecified), the IC50 in test [1] turned out to be 14 nM; in test [5], 12 nM; in test [6], 10 nM; in test [4], 720 nM.
Take `CCOC(=O)CNC(=O)OCC1=C(C(=O)O)N2C(=O)/C(=C/c3ccccn3)C2S(=O)(=O)C1` (stereo unspecified): the IC50 is 260000 nM in test [1], 45000 nM in test [2], 400 nM in test [3] and 33400 nM in test [4].
As to `CCC(=O)OCC1=C(C(=O)O)N2C(=O)/C(=C/c3ccccn3)C2S(=O)(=O)C1` (stereo unspecified), the IC50 worked out at 311000 nM in test [1] and 15400 nM in test [4].
Turning to `O=C(O)/C=C/C1=C(C(=O)O)N2C(=O)/C(=C/c3ccccn3)C2S(=O)(=O)C1` (stereo unspecified), the IC50 in test [1] is 2500 nM; in test [3], 310 nM; in test [4], 31000 nM.
`COC(=O)/C=C/C1=C(C(=O)O)N2C(=O)/C(=C/c3ccccn3)C2S(=O)(=O)C1` (stereo unspecified): the IC50 was determined as 20 nM in test [1], 300 nM in test [2], 200 nM in test [3] and 300 nM in test [4].
For the compound `C=CC(=O)OCC1=C(C(=O)O)N2C(=O)/C(=C/c3ccccn3)C2S(=O)(=O)C1` (stereo unspecified), the IC50 in test [2] stood at 900 nM; in test [3], 100 nM; in test [4], 110000 nM.
For the compound `O=C(O)C1=C(/C=C/c2cccc[n+]2[O-])CS(=O)(=O)[C@@H]2/C(=C\c3ccccn3)C(=O)N12`, the IC50 in test [1] turned out to be 6 nM; in test [2], 100 nM; in test [3], 600 nM; in test [4] it was 8600 nM.
Regarding `NC(=O)OCC1=C(C(=O)O)N2C(=O)/C(=C/c3ccccn3)C2S(=O)(=O)C1` (stereo unspecified), the half-inhibitory concentration (IC50) in test [1] came out at 10500 nM; in test [2] it was 260 nM; in test [3] it was 2300 nM; in test [4], 7900 nM.
As to `CC(C)(C)OC(=O)/C=C/C1=C(C(=O)O)N2C(=O)/C(=C/c3ccccn3)C2S(=O)(=O)C1` (stereo unspecified), the values for the IC50 in test [3] and in test [4] were 1480 nM and 240000 nM, respectively.
